Several values for one entry are separate records, joined by “and”; a condition that tells them apart may be missing. Equal entries are not always repeated.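 48-hour exposure; five concentrations; linearly interpolated endpoints. GI50 = concentration required for 50% inhibition of growth. The concentration for full growth arrest is given as TGI.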
Assays:
Test in all cases: NCI-60 cell line screen, 48 h
[1] = tested on: A498 renal
[2] = tested on: SK-MEL-28 melanoma
[3] = tested on: HS 578T breast
[4] = tested on: NCI-H23 lung
[5] = tested on: COLO 205 colon
[6] = tested on: M14 melanoma
[7] = tested on: UACC-257 melanoma
[8] = tested on: MALME-3M melanoma
[9] = tested on: HL-60(TB) leukemia
[10] = tested on: BT-549 breast

| SMILES | TGI [1] | TGI [2] | TGI [3] | TGI [4] | TGI [5] | TGI [6] | TGI [7] | TGI [8] | TGI [9] | TGI [10] | GI50 [1] | GI50 [2] | GI50 [3] | GI50 [4] | GI50 [5] | GI50 [6] | GI50 [7] | GI50 [8] | GI50 [9] | GI50 [10] |
| --- | --- | --- | --- | --- | --- | --- | --- | --- | --- | --- | --- | --- | --- | --- | --- | --- | --- | --- | --- | --- |
| CC(=O)NC1C(OCc2ccccc2)OC(CO)C(O)C1OC(C)C(=O)NC(C(=O)NC(CCC(=O)NCCCCNc1c2ccccc2nc2cccc([N+](=O)[O-])c12)C(N)=O)C(C)C (centres undefined) | 4.74 µM | 7.19 µM | 42.6 µM | 4.75 µM | 11.6 µM | 3.32 µM | 15.9 µM | 4.08 µM | 6.77 µM | 20.8 µM |  |  |  |  |  |  |  |  |  |  |
| C=CCOn1c(C=C)nc2ccc(C)cc21 | 43.6 µM | 38 µM | > 100 µM | 46 µM | 26.9 µM | 32.6 µM | 32.3 µM | 38.9 µM | 22.2 µM | 41.2 µM |  |  |  |  |  |  |  |  |  |  |
| O=C1c2c(O)cccc2-c2nn(CCNCCO)c3ccc(NCCNCCO)c1c23 | 0.578 µM | 1.97 µM | 0.535 µM | 0.592 µM | 1.67 µM | 2.02 µM | 5.69 µM | 1.12 µM | 0.123 µM | 1.42 µM |  |  |  |  |  |  |  |  |  |  |
| C=C(C)CC1(O[Si](C)(C)C)C(=O)C(OCC)=C1OCC (centres undefined) | > 100 µM | > 100 µM | > 100 µM | > 100 µM | > 100 µM | > 100 µM | > 100 µM | > 100 µM | > 100 µM | > 100 µM |  |  |  |  |  |  |  |  |  |  |
| C/C(=N\Nc1nc2cc(C(F)(F)F)ccc2s1)c1ccccn1 | 7.61 µM | 5.74 µM | 14.6 µM | 6.74 µM | 7.01 µM | 7.14 µM | > 31.2 µM | 8.9 µM | 0.872 µM | > 40.1 µM |  |  |  |  |  |  |  |  |  |  |
| CN(C)Cc1cc(C(=O)/C=C/c2ccccc2)cc(CN(C)C)c1O | 78.6 µM | > 100 µM | > 100 µM | > 100 µM | 31.9 µM | 63.1 µM | 27.9 µM | 44.9 µM | 42.3 µM | 42.7 µM |  |  |  |  |  |  |  |  |  |  |
| CC(C)(C)CC(C)(C)c1cc(O)c(O)c(CN2CCCCC2)c1 | 27.3 µM | 32.8 µM | 41.3 µM | 29.6 µM | 25.3 µM | 29 µM | 26.1 µM | 25.9 µM | 31.6 µM | 28.4 µM |  |  |  |  |  |  |  |  |  |  |
| CN1CC2=C(NC(=S)NC2c2ccccc2)/C(=C/c2ccccc2)C1 (centres undefined) | > 100 µM | 94.3 µM | > 100 µM | > 100 µM | > 100 µM | 56.6 µM | > 100 µM | > 100 µM | > 10 µM | > 100 µM |  |  |  |  |  |  |  |  |  |  |
| COc1ccc2[nH]c(O)c(/C=c3/cc4c(c(-c5ccc(F)c(OC)c5)n3)=Nc3ccccc3-4)c2c1 | 19.2 µM | 4.51 µM | 5.04 µM | 38.2 µM | 5.87 µM | 4.15 µM | 8.86 µM | 3.92 µM | 35.1 µM | 3.91 µM | 4.42 µM | 2.06 µM | 1.87 µM | 4.68 µM | 2.56 µM | 2 µM | 2.81 µM | 2.03 µM | 14.4 µM | 1.89 µM |
| O=C1OC[C@H]2[C@@H]1[C@H]1O[C@@H]2C2=C(CCC2)C1=O | > 100 µM | > 100 µM | > 100 µM | > 100 µM | > 100 µM | > 100 µM | > 100 µM | > 100 µM | > 100 µM | > 100 µM |  |  |  |  |  |  |  |  |  |  |
| CC1=C2C(=CO[C@H](C)[C@H]2C)C(=O)C(C(=O)O)=C1O |  | 93.5 µM and 54.9 µM | 96.4 µM | 71.4 µM and 58.4 µM | 77.3 µM and 45.8 µM | 60.9 µM | > 87.8 µM | 54.4 µM and 115 µM | 59 µM and 25.7 µM | 37.1 µM | 32.7 µM | 23.9 µM |  | 24.1 µM | 22.1 µM |  |  | 21 µM | 25.3 µM |  |
| CC(C)(C)OC(=O)NCC(CNC(=O)OC(C)(C)C)c1nc(C(N)=O)cs1 | > 100 µM | > 100 µM | > 100 µM | > 100 µM | > 100 µM | > 100 µM | > 100 µM | > 100 µM | > 100 µM | > 100 µM |  |  |  |  |  |  |  |  |  |  |
| C=C=C(CC(CC(=C)Br)(C(=O)OC)C(=O)OC)S(=O)(=O)c1ccccc1 | 14.7 µM | 3.23 µM | 6.37 µM | 6.33 µM | 3.26 µM | 4.3 µM | 5.88 µM | 4.11 µM | > 100 µM | 3.18 µM |  |  |  |  |  |  |  |  |  |  |
| NN=C(CC(O)(C(F)(F)Cl)C(F)(F)Cl)CC(O)(C(F)(F)Cl)C(F)(F)Cl | > 10 µM | > 10 µM | > 10 µM | > 10 µM | > 10 µM | > 10 µM | > 10 µM | > 10 µM | > 10 µM | > 10 µM |  |  |  |  |  |  |  |  |  |  |
| C/C(=N\Nc1nc2ccccc2n1C)c1cc2ccccc2cn1 | 1.47 µM | 16.6 µM | 15.1 µM | 7.4 µM |  | 2.81 µM | 7.26 µM | 3.03 µM | 1.41 µM | 13.8 µM |  |  |  |  |  |  |  |  |  |  |
| CCOC(=O)c1cc(C)nc2c1c(=O)n(-c1ccccc1)c(=O)n2CCCCN1CCN(c2ccccc2)CC1 | > 100 µM | > 100 µM | > 100 µM | > 100 µM | > 100 µM | > 100 µM | 99.8 µM | > 100 µM | 49.1 µM | > 100 µM |  |  |  |  |  |  |  |  |  |  |
| Cc1ccc(S(=O)(=O)Nn2c(O)c(C#N)c(-c3ccc(Cl)cc3)c(C#N)c2=O)cc1 | > 100 µM | > 100 µM | > 100 µM |  | > 100 µM | > 100 µM | > 100 µM | > 100 µM | > 100 µM | > 100 µM |  |  |  |  |  |  |  |  |  |  |
| O=C(CCN1CCN2c3ccccc3CCC2C1)c1ccc(F)cc1 (centres undefined) | > 100 µM | 32.2 µM | > 100 µM | > 100 µM | 44.4 µM | > 100 µM | 97.1 µM | 49.2 µM | 89.6 µM | 50 µM |  |  |  |  |  |  |  |  |  |  |
| C#CCn1c(=O)c(C)cn(/C(=C\C(=O)OCC)C(=O)OCC)c1=O | 40.8 µM | 31 µM | 62 µM | 27.3 µM | 3.12 µM | 11.3 µM | 28.2 µM | 5.6 µM | > 100 µM | 22.8 µM |  | 14.5 µM |  |  | 1.52 µM |  |  |  |  |  |
| O=C1CC(=O)n2cnc3cccc(c32)N1 | > 100 µM | > 100 µM | > 100 µM | > 100 µM | > 100 µM | > 100 µM | > 100 µM | > 100 µM | > 100 µM | > 100 µM |  |  |  |  |  |  |  |  |  |  |
| O=C(N/N=C/C=C/c1ccccc1)c1ccccc1Nc1ccccc1C(=O)N/N=C/C=C/c1ccccc1 | > 100 µM | > 100 µM | > 100 µM | > 100 µM | > 100 µM | > 100 µM | > 100 µM | > 100 µM | > 100 µM | > 100 µM |  |  |  |  |  |  |  |  |  |  |
| CCOC(=O)c1cc2c([N+](=O)[O-])c(N)ccc2s1 | > 100 µM | > 100 µM | > 100 µM | > 100 µM | > 100 µM | > 100 µM | > 100 µM | > 100 µM | > 100 µM | > 100 µM |  |  |  |  |  |  |  |  |  |  |
| O=[N+]([O-])c1cccc(N=Nc2c(O)c(S(=O)(=O)O)cc3cc(S(=O)(=O)O)ccc23)c1 | > 100 µM | > 100 µM | > 100 µM | > 100 µM | > 100 µM | > 100 µM | > 100 µM | > 100 µM | > 100 µM | > 100 µM |  |  |  |  |  |  |  |  |  |  |
| CN(C)CCCNc1ccc2nnn3c4ccc(O)cc4c(=O)c1c23 | 20.1 µM | 22.5 µM | 13.3 µM | 18.3 µM | 15.8 µM | 21 µM | 29.8 µM | 23.1 µM | > 46.9 µM | 33.9 µM |  |  |  |  |  |  |  |  |  |  |
| O=C1NC(=O)C(C(CC(=O)c2ccc(Cl)cc2)c2ccc(Cl)cc2)C(=O)N1 (centres undefined) | > 100 µM | > 100 µM | > 100 µM | > 100 µM |  | > 100 µM | > 100 µM | 7.63 µM | > 100 µM | > 100 µM |  |  |  |  |  |  |  |  |  |  |
| O=C(c1cccs1)N1CCN(C(=O)c2cccs2)C1=S | 32.1 µM | 19.2 µM | > 100 µM | 32.1 µM | 22.4 µM | 19 µM | 22.9 µM | 28.7 µM | 5.2 µM | 14.9 µM |  |  |  |  |  |  |  |  |  |  |
| CC(C)(C)n1c(=O)[nH]c(=O)n1C(C)(C)C | > 100 µM | > 100 µM | > 100 µM | > 100 µM | > 100 µM | > 100 µM | > 100 µM | > 100 µM | > 100 µM | > 100 µM |  |  |  |  |  |  |  |  |  |  |
| C/C(=N\NC(=S)N(C)C)c1cccnn1 | 10.7 µM | > 100 µM | > 100 µM | > 28.2 µM | > 100 µM | > 100 µM | 2.98 µM | > 70.5 µM | > 100 µM | > 100 µM |  |  |  |  |  |  |  |  |  |  |
| CN(C)CCn1c(CO)nc2c1c(=O)n(C)c(=O)n2C | > 100 µM | > 100 µM | > 100 µM | > 100 µM | > 100 µM | > 100 µM | > 100 µM | > 100 µM | > 100 µM | > 100 µM |  |  |  |  |  |  |  |  |  |  |
| C=C(C)[C@H]1C2=CC(C)=C(O2)[C@@H](O[C@@H]2c3oc(cc3C)[C@H](C(=C)C)[C@H]3C=C(CC[C@H]2C(=C)C)C(=O)O3)[C@H](C(=C)C)CCC2=C[C@H]1OC2=O | > 100 µM | > 100 µM | > 100 µM | > 100 µM | > 100 µM | > 100 µM | > 100 µM | > 100 µM | > 100 µM | > 100 µM |  |  |  |  |  |  |  |  |  |  |

Source: PubChem BioAssay (NCI)
